Reference: patent US7319000B1, “Compositions and methods for eliciting immune or anti-infective responses” (priority 1992, dated 2008)

Experiments:
BALB/c mice = test: Anti-peptide antibody response (ELISA) in BALB/c mice immunized with peptide multimers; assay type: in vivo; set-up: key to Antipeptide Antibody Reactivity to Analogous Peptide: −: cpm values are corrected and categorized according to unrelated antigen response in vitro.; •: Not determined.; +: cpm values are corrected and categorized according to unrelated antigen response in vitro.; ++: cpm values are corrected and categorized according to unrelated antigen response in vitro.; +++: cpm values are corrected and categorized according to unrelated antigen response in vitro.; ++++: cpm values are corrected and categorized according to unrelated antigen response in vitro; conditions: for Antipeptide Antibody Reactivity to Analogous Peptide: antibody raised in Balb/C mice, ELISA end point; for anti-peptide antibody response (in words): high molecular weight forms of the peptides; for anti-peptide antibody production (in words): disulfide (di-Cys) polymeric form
[1] = tested on: PLN cells from A SW × Balb/c F1 mice; test: In vitro proliferation (3H-TdR) of PLN cells from immunized A.SW x BALB/c F1 mice; assay type: in vivo, A.SWXBALB/C F1 mice; set-up: key: −: cpm values are corrected and categorized according to unrelated antigen response in vitro.; •: Not determined.; +: cpm values are corrected and categorized according to unrelated antigen response in vitro.; ++: cpm values are corrected and categorized according to unrelated antigen response in vitro.; +++: cpm values are corrected and categorized according to unrelated antigen response in vitro.; ++++: cpm values are corrected and categorized according to unrelated antigen response in vitro; conditions: for In Vitro Proliferation of PLN Cells from A SW × Balb/c F1, GP 160: in vitro antigen: GP 160; for In Vitro Proliferation of PLN Cells from A SW × Balb/c F1, Analogous Peptide: in vitro antigen: analogous peptide
[2] = tested on: PLN cells from B6C3F1 mice; test: In vitro proliferation (3H-TdR) of PLN cells from immunized B6C3 F1 mice; assay type: in vivo; set-up: key to In Vitro Proliferation of PLN Cells from B6C3F1, Analogous Peptide / In Vitro Proliferation of PLN Cells from B6C3F1, GP 160: −: cpm values are corrected and categorized according to unrelated antigen response in vitro.; •: Not determined.; +: cpm values are corrected and categorized according to unrelated antigen response in vitro.; ++: cpm values are corrected and categorized according to unrelated antigen response in vitro.; +++: cpm values are corrected and categorized according to unrelated antigen response in vitro.; ++++: cpm values are corrected and categorized according to unrelated antigen response in vitro; conditions: for In Vitro Proliferation of PLN Cells from B6C3F1, GP 160: in vitro antigen: GP 160; for In Vitro Proliferation of PLN Cells from B6C3F1, Analogous Peptide: in vitro antigen: analogous peptide; for T cell response against the corresponding peptide and native HIV envelope protein gp160 (in words): disulfide (di-Cys) polymeric form
[3] = tested on: PBMCs of immunized rhesus monkeys; test: PBMC proliferation in rhesus monkeys immunized with a mixture of eight synthetic peptides; assay type: in vivo; set-up: key to T-cell Proliferation Responses: —: no detectable response; 1+: poor response; 2+: good response; 3+: better response; 4+: best response; 6+: best response; conditions: for T-cell Proliferation Responses: PBMC response to the individual peptide or gp160; for PBMC proliferative responses (in words): three rhesus monkeys, monitored for 32 weeks
Method: In the present studies, three rhesus monkeys (#7, #23 and #283C) were immunized subcutaneously with 1 ml (0.1 ml/site) of a mixture of eight synthetic peptides (300·g of each peptide in sterile water) emulsified in complete Freund's adjuvant at 1:1 ratio. […] At 3 and 7 weeks after the primary immunization, two booster injections of the peptide mixture (150·g of each peptide in sterile water) emulsified in incomplete Freund's adjuvant were given to each monkey. Monkey #7 was terminated after […], for health reasons unrelated to the study, while the remaining two monkeys (#283C and #23) received one additional booster injection at 25 weeks.
At two week intervals following the first immunization of each animal, 15 ml of whole heparinized blood was collected by venous puncture. The peripheral blood mononuclear cells (PBMC) were separated by standard ficoll-hypaque centrifugation and employed in proliferation assays. The PBMCs were monitored every two weeks for a period of 32 weeks for proliferative responses against individual peptides and recombinant gp160.

[4] = tested on: HIV-1 IIIB infection of human cells; assay type: cell-based; note: test concentration or dose not given here

Sequence | Antipeptide Antibody Reactivity to Analogous Peptide (BALB/c mice) | anti-peptide antibody response (in words) (BALB/c mice) | In Vitro Proliferation of PLN Cells from A SW × Balb/c F1, GP 160 [1] | In Vitro Proliferation of PLN Cells from A SW × Balb/c F1, Analogous Peptide [1] | In Vitro Proliferation of PLN Cells from B6C3F1, GP 160 [2] | In Vitro Proliferation of PLN Cells from B6C3F1, Analogous Peptide [2] | anti-peptide antibody production (in words) (BALB/c mice) | T-cell Proliferation Responses ([3]; Rhesus Monkey #7) | T-cell Proliferation Responses ([3]; Rhesus Monkey #23) | T-cell Proliferation Responses ([3]; Rhesus Monkey #283C) | PBMC proliferative responses (in words) [3] | T cell response against the corresponding peptide and native HIV envelope protein gp160 (in words) [2] | % RT INHIBITION [4]
AHKVWATHACV [Peptide 106] | ++ | high antibody titers | + | ++++ | + | +++ |  |  |  |  |  |  | 
CRIKQIINMWQGVGKAMYA [Peptide 65, gp160 aa 417-435; polymeric form of the T-helper cell peptide] | ++ | high antibody titers | ++ | ++++ | + | ++ |  |  |  |  |  |  | 
CVPTNPVPQEVV [Peptide 107] | + | high antibody titers | + | + | ++ | ++ |  |  |  |  |  |  | 
EQMHEDIISLWDQ [Peptide 110] | ++++ | high antibody titers | + | ++ | − | ++ |  |  |  |  |  |  | 
FEPIPIHYCAFPGF [Peptide 114] | ++++ | high antibody titers | + | ++ | − | ++ |  |  |  |  |  |  | 
FLGFLGAAGSTMGAASLTLTVQANQ [Peptide 63, gp160 aa 519-543] | • | very low to negligible amounts of anti-peptide antibodies | ++ | ++ | ++ | ++ | do not stimulate anti-peptide antibody production | 2+ | 4+ | 3+ | good proliferative responses | strong T cell response | 
GIAIGPGRTLYAREK [Peptide D27, V3 loop peptide, strain NY-5] |  |  |  |  |  |  |  |  |  |  |  |  | 0%
GIHFGPGQALYTTGI [Peptide D33, V3 loop peptide, strain MAL] |  |  |  |  |  |  |  |  |  |  |  |  | 0%
GTGPCTNVSTVQC [Peptide 116] | − | very low to negligible amounts of anti-peptide antibodies |  |  | − | ++ |  | 1+ | 3+ | 2+ | weak responses |  | 
GVPVWKEATTLFC [Peptide 105] | • | high antibody titers | − | + | +++ | ++++ |  |  |  |  | A significant response was not detected |  | 
KKFNGTGPCTN [Peptide 115] | ++ | high antibody titers |  |  | + | ++ |  |  |  |  |  |  | 
LWDQSLKPCVKLT [Peptide 111] | − | very low to negligible amounts of anti-peptide antibodies | − | • | ++ | + |  | 3+ | 2+ | 3+ | good proliferative responses |  | 
NNMVEQMHEDI [Peptide 109] | +++ | high antibody titers | + | • | • | ++ |  |  |  |  |  |  | 
NNTRKSITKGPGRVIYATGQIIGD [Peptide D26, V3 loop peptide, strain RF] |  |  |  |  |  |  |  |  |  |  |  |  | 72.2%
SLKPCVKLTPLC [Peptide 112] | + | high antibody titers | + | + | + | + |  |  |  |  |  |  | 
SVITQACSKVSFE [Peptide 113] | − | very low to negligible amounts of anti-peptide antibodies | + | ++ | + | ++ | do not stimulate anti-peptide antibody production | 1+ | 2+ | 2+ | weak responses | strong T cell response | 
VLENVTENFNM [Peptide 108] | + | high antibody titers | − | + | + | + |  |  |  |  |  |  | 
VQCTHGIRPVVSTQ [Peptide 117] | ++++ | high antibody titers |  |  | − | +++ |  |  |  |  |  |  | 
VYYGVPVWKEA [Peptide 104] | • | very low to negligible amounts of anti-peptide antibodies | + | +++ | ++ | ++++ |  | 4+ | 2+ | 4+ | good proliferative responses |  | 
YLRDQQLLGIWGC [Peptide 61, gp160 aa 586-598] | − | very low to negligible amounts of anti-peptide antibodies | ++ | ++ | + | ++ | do not stimulate anti-peptide antibody production | — | 3+ | 2+ | Two of the three rhesus monkey-derived PBMC preparations also showed good proliferative responses | strong T cell response | 
